The source of these data is patent US20030007938A1, “Methods for treating fingernails and toenails” (priority 2001, published 2003).

This test deals with index fingernail and cuticle. As to the kind of experiment: Fingernail growth of the index finger in human volunteers, daily topical treatment for four weeks. The test is classed as in vivo. The procedure: This Example describes the use of a cream prepared with the complexes of peptone with copper (II) to improve nail growth in humans. The copper soy peptone complex (0.3% copper ion and 4% dry weight of peptone) was mixed into an application cream containing 55% (by weight) aloe vera gel, 12% squalane, 12% glycerol stearate, 5% PEG-100, 4% cetyl alcohol and 0.3% retinol. The placebo-treated control nails were treated with a similar cream that contained no copper-peptide complex. For testing experiments, the fingernail growth rates of the index finger were used as a measurement. In the first set of experiments, the copper-peptide complex was applied to the index fingernail and cuticle on the right hand while the left hand nail was untreated and used as a control. In the second set of experiments with different human volunteers, the copper-peptide cream was applied to the index fingernail and cuticle on the left hand while the right hand nail was treated with the placebo cream and used as a control. Nails were treated daily for four weeks. Nail length was measured from the end of the nail bed to the tip of the nail at its center by pushing a small plastic ruler under the nail and firmly against the nail bed. […] The effect of nail growth stimulation was approximately similar if either the right hand treated group or the left hand treated group was used. For testing experiments, the fingernail growth rates of the index finger were used as a measurement. In the experiments, the copper-peptide complex was applied to the index fingernail and cuticle on the right hand while the left hand nail was treated with the placebo cream and used as a control. Nails were treated daily for four weeks. Nail length was measured from the end of the nail bed to the tip of the nail at its center by pushing a small plastic ruler under the nail and firmly against the nail bed. […]

Several values for one entry are separate records, joined by “and”; a condition that tells them apart may be missing. Identical values can stand only once.

Take GHK-Copper (II) [GHK-Copper complex]: the “Finger Nail Growth, Right Hand Treated” value (GHK-Copper (II) cream for four weeks, one value per person, left hand placebo control) was 3.1 millimeters in four weeks and 3.5 millimeters in four weeks and 3.7 millimeters in four weeks and 3.4 millimeters in four weeks and 2.9 millimeters in four weeks. The “Visual inspection of treated nails versus control hand” value (four weeks, readily apparent in all cases) is “appeared to be longer”. The “Nail growth of treated nails compared with control nails” value (summary in words of the table, four weeks) is reported as “better nail growth”.
